Measurements: PubChem BioAssay AID2060484 (Molecular Pharmacology Branch, DTP, NCI, 2025)

System: SUM149PT spheroids with HUVEC/MSC, viability
Experiment: Anticancer human tumor SUM149PT cell line growth inhibition [GQUAD];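 further: spheroids exposed to drugs for seven days before readout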;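 on viability, T/C: percent viability relative to DMSO vehicle control taken as 100%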
Conditions: for IC50: curve of first compound; for viability, T/C: stronger effect = lower value; active means viability on the fitted dose curve at most 10% of control; inactive means the rest
In short: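 Multi-cell-type spheroids of tumor cells with HUVEC and mesenchymal stem cells, treated with drug combinations. Concentrations descend in half-log steps from near clinical Cmax, or from 10 microM where Cmax is unknown; viability read-out.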

[1] = second compound 0.0316 µM, first compound 0.0316 µM
[2] = second compound 0.0316 µM, first compound 0.1 µM
[3] = second compound 0.0316 µM, first compound 0.316 µM
[4] = second compound 0.0316 µM, first compound 1 µM
[5] = second compound 0.0316 µM, first compound 3.16 µM
[6] = second compound 0.0316 µM, first compound 10 µM
[7] = second compound 0.1 µM, first compound 0.0316 µM
[8] = second compound 0.1 µM, first compound 0.1 µM
[9] = second compound 0.1 µM, first compound 0.316 µM
[10] = second compound 0.1 µM, first compound 1 µM
[11] = second compound 0.1 µM, first compound 3.16 µM
[12] = second compound 0.1 µM, first compound 10 µM
[13] = second compound 0.316 µM, first compound 0.0316 µM
[14] = second compound 0.316 µM, first compound 0.1 µM
[15] = second compound 0.316 µM, first compound 0.316 µM
[16] = second compound 0.316 µM, first compound 1 µM
[17] = second compound 0.316 µM, first compound 3.16 µM
[18] = second compound 0.316 µM, first compound 10 µM
[19] = second compound 1 µM, first compound 0.0316 µM
[20] = second compound 1 µM, first compound 0.1 µM
[21] = second compound 1 µM, first compound 0.316 µM
[22] = second compound 1 µM, first compound 1 µM
[23] = second compound 1 µM, first compound 3.16 µM
[24] = second compound 1 µM, first compound 10 µM
[25] = second compound 3.16 µM, first compound 0.0316 µM
[26] = second compound 3.16 µM, first compound 0.1 µM
[27] = second compound 3.16 µM, first compound 0.316 µM
[28] = second compound 3.16 µM, first compound 1 µM
[29] = second compound 3.16 µM, first compound 3.16 µM
[30] = second compound 3.16 µM, first compound 10 µM
[31] = second compound 10 µM, first compound 0.0316 µM
[32] = second compound 10 µM, first compound 0.1 µM
[33] = second compound 10 µM, first compound 0.316 µM
[34] = second compound 10 µM, first compound 1 µM
[35] = second compound 10 µM, first compound 3.16 µM
[36] = second compound 10 µM, first compound 10 µM

CC1COCCN1c1cc(C2(S(C)(=N)=O)CC2)nc(-c2ccnc3[nH]ccc23)n1 (stereo unspecified) + Cc1[nH]c2ccc(F)cc2c1-c1nc2c3cccnc3c3ncccc3c2[nH]1
2830 nM: IC50 (second compound 0.316 µM)
2380 nM: IC50 (second compound 0.0316 µM)
2450 nM: IC50 (second compound 3.16 µM)
2170 nM: IC50 (second compound 10 µM)
2630 nM: IC50 (second compound 1 µM)
2650 nM: IC50 (second compound 0.1 µM)
inactive: viability, T/C [1] 95.9% | viability, T/C [2] 93.6% | viability, T/C [3] 99.7% | viability, T/C [4] 79.5% | viability, T/C [5] 40.5% | viability, T/C [6] 17.3% | viability, T/C [7] 112% | viability, T/C [8] 99.5% | viability, T/C [9] 86.7% | viability, T/C [10] 89.2% | viability, T/C [11] 41.9% | viability, T/C [12] 22.6% | viability, T/C [13] 103% | viability, T/C [14] 105% | viability, T/C [15] 89.8% | viability, T/C [16] 83.6% | viability, T/C [17] 45% | viability, T/C [18] 20.6% | viability, T/C [19] 91.9% | viability, T/C [20] 100% | viability, T/C [21] 97.1% | viability, T/C [22] 83.9% | viability, T/C [23] 43.5% | viability, T/C [24] 19.6% | viability, T/C [25] 86.5% | viability, T/C [26] 84.9% | viability, T/C [27] 89.7% | viability, T/C [28] 75.4% | viability, T/C [29] 42.8% | viability, T/C [30] 19% | viability, T/C [31] 103% | viability, T/C [32] 96.5% | viability, T/C [33] 94.3% | viability, T/C [34] 79.5% | viability, T/C [35] 35.6% | viability, T/C [36] 18.3%

COc1cccc2c1C(=O)c1c(O)c3c(c(O)c1C2=O)CC(O)(C(=O)CO)CC3OC1CC(N)C(O)C(C)O1 (stereo unspecified) + CN(C)c1ccc(Nc2c3ccc(NC(=O)CCN4CCCC4)cc3nc3cc(NC(=O)CCN4CCCC4)ccc23)cc1
159 nM: IC50 (second compound 1 µM)
279 nM: IC50 (second compound 0.0316 µM)
273 nM: IC50 (second compound 0.316 µM)
260 nM: IC50 (second compound 0.1 µM)
217 nM: IC50 (second compound 10 µM)
240 nM: IC50 (second compound 3.16 µM)
inactive: viability, T/C [1] 102% | viability, T/C [2] 67.8% | viability, T/C [3] 52.5% | viability, T/C [4] 27.3% | viability, T/C [5] 5.04% | viability, T/C [7] 97.9% | viability, T/C [8] 67.9% | viability, T/C [9] 48.2% | viability, T/C [10] 27.4% | viability, T/C [13] 79.5% | viability, T/C [14] 67.5% | viability, T/C [15] 46.9% | viability, T/C [16] 25.2% | viability, T/C [19] 73.5% | viability, T/C [20] 53.2% | viability, T/C [21] 42.5% | viability, T/C [22] 23.4% | viability, T/C [25] 71% | viability, T/C [26] 58.4% | viability, T/C [27] 48.1% | viability, T/C [28] 24.1% | viability, T/C [31] 78.9% | viability, T/C [32] 59.2% | viability, T/C [33] 45.6% | viability, T/C [34] 28.1%
active: viability, T/C [6] 1.9% | viability, T/C [11] 2.62% | viability, T/C [12] 0.68% | viability, T/C [17] 2.96% | viability, T/C [18] 1.86% | viability, T/C [23] 3.28% | viability, T/C [24] 1.27% | viability, T/C [29] 4.84% | viability, T/C [30] 2.15% | viability, T/C [35] 4% | viability, T/C [36] 2.22%

Cc1[nH]c2ccccc2c1CCNCc1ccc(/C=C/C(=O)NO)cc1 + Cc1cnc(CNC(=O)c2c(=O)c3ccc(N4CCCN(C)CC4)nc3n3c2sc2ccccc23)cn1
131 nM: IC50 (second compound 0.0316 µM)
< 0.999 nM: IC50 (second compound 1 µM) | IC50 (second compound 3.16 µM) | IC50 (second compound 10 µM)
56 nM: IC50 (second compound 0.316 µM)
100 nM: IC50 (second compound 0.1 µM)
active: viability, T/C (second compound 10 µM, first compound 0.000999 µM) 0.24% | viability, T/C (second compound 10 µM, first compound 0.00316 µM) 1.67% | viability, T/C (second compound 10 µM, first compound 0.00999 µM) 9.84% | viability, T/C [31] 10.1% | viability, T/C (second compound 10 µM, first compound 0.0999 µM) 2.55% | viability, T/C [33] 2%
inactive: viability, T/C (second compound 0.0316 µM, first compound 0.000999 µM) 106% | viability, T/C (second compound 0.0316 µM, first compound 0.00316 µM) 86.2% | viability, T/C (second compound 0.0316 µM, first compound 0.00999 µM) 90% | viability, T/C [1] 89.5% | viability, T/C (second compound 0.0316 µM, first compound 0.0999 µM) 56% | viability, T/C [3] 29.8% | viability, T/C (second compound 0.1 µM, first compound 0.000999 µM) 66.2% | viability, T/C (second compound 0.1 µM, first compound 0.00316 µM) 62.1% | viability, T/C (second compound 0.1 µM, first compound 0.00999 µM) 67.7% | viability, T/C [7] 65.2% | viability, T/C (second compound 0.1 µM, first compound 0.0999 µM) 50.1% | viability, T/C [9] 26.9% | viability, T/C (second compound 0.316 µM, first compound 0.000999 µM) 54.2% | viability, T/C (second compound 0.316 µM, first compound 0.00316 µM) 55.2% | viability, T/C (second compound 0.316 µM, first compound 0.00999 µM) 55.3% | viability, T/C [13] 54.9% | viability, T/C (second compound 0.316 µM, first compound 0.0999 µM) 45.7% | viability, T/C [15] 25% | viability, T/C (second compound 1 µM, first compound 0.000999 µM) 51.1% | viability, T/C (second compound 1 µM, first compound 0.00316 µM) 43.2% | viability, T/C (second compound 1 µM, first compound 0.00999 µM) 48.5% | viability, T/C [19] 47.7% | viability, T/C (second compound 1 µM, first compound 0.0999 µM) 46.2% | viability, T/C [21] 20.2% | viability, T/C (second compound 3.16 µM, first compound 0.000999 µM) 39.1% | viability, T/C (second compound 3.16 µM, first compound 0.00316 µM) 40.3% | viability, T/C (second compound 3.16 µM, first compound 0.00999 µM) 39.1% | viability, T/C [25] 42.6% | viability, T/C (second compound 3.16 µM, first compound 0.0999 µM) 37.9% | viability, T/C [27] 17.8%
